Source: article PMC8279415, “Targeting Acute Myelogenous Leukemia Using Potent Human Dihydroorotate Dehydrogenase Inhibitors Based on the 2-Hydroxypyrazolo[1,5-a]pyridine Scaffold: SAR of the Biphenyl Moiety” (Journal of Medicinal Chemistry, 2021)
≈ marks a conversion by molar mass, not a printed value. Entries after “also recorded” stand apart in the source; their conditions may differ. Where two headings read alike, the source gives them in different places.

Experiments:
[1] = Protein binding in vitro (ultrafiltration); assay type: in vitro ADME; conditions: male, human serum, 37 °C, read-out: protein binding (% bond) (converted)
Method: This was achieved via ultrafiltration using commercially available membrane systems (Centrifree ultrafiltration devices with ultracel YM-T membrane, Merck). […] 1 mL of the solution obtained in the sample reservoir of the ultrafiltration device was gently shaken in an orbital shaker at 37 °C for 1 h. […] The concentrations of the compounds in the ultrafiltrate and filtrate were determined using reverse-phase UHPLC, and the chromatographic conditions were those described above with different injection volumes: 20 μL for ultrafiltrate samples and 2 μL for filtrate samples.

recombinant hDHODH = target: T1, recombinant hDHODH (Homo sapiens, UniProt Q02127); experiment: hDHODH inhibition assay (DCIP reduction); assay type: biochemical
T1 construct: made in house; host or cells: E. coli BL21DE3 PyrD
Method: BL21DE3 PyrD E. coli cells were transformed using the plasmid construct pFN2A–hDHODH (kindly given by Department of Drug Science and Technology, University of Turin, Turin, Italy). The vector produces hDHODH as an N-terminal GST-fusion protein. Cells were grown at 37 °C in LB medium supplemented with 0.1 mM flavin mononucleotide (Cayman Chemical). […] Triton X-100 was added to the lysate, to a final concentration of 1%, before centrifugation at 14 000g for 40 min at 4 °C. The clarified supernatant was incubated with DNase I for 30 min at room temperature, supplemented with 2 mM dithiothreitol (DTT), and filtered through a 0.45 μm syringe filter as previously described by Sainas et al.[18] The GST-fused enzyme was purified from the bacterial lysate using affinity chromatography on immobilized glutathione-Sepharose columns (GE- […]). The GST tag was not cleaved for further analysis. All the reagents used in the protein expression and purification were supplied by Merck/Sigma-Aldrich if not otherwise specified.
The enzymatic inhibition assay was optimized for being performed on a 96-well plate and to achieve higher throughput. For each well of the plate a total volume of 200 μL was used: 5 μL of purified GST-hDHODH; 60 μL of 2,6-dichloroindophenol (DCIP) 50 μM; 20 μL of coenzyme Q10 enzyme 100 μM; 20 μL of dihydroorotate (DHO) 500 μM; Tris-HCl, pH 8, up to a final volume of 200 μL. Inhibitory activity was assessed by monitoring the reduction of DCIP, which is associated with the oxidation of dihydroorotate as catalyzed by the DHODH enzyme. The enzyme was preincubated for 5 min at 37 °C in Tris-HCl, pH 8, with coenzyme Q10, with DCIP (50 μM), and with the compounds to be tested used at different concentrations (final DMSO concentration 0.1% v/v). The reaction was initiated by the addition of DHO (500 μM), and the absorbance kinetic reduction was monitored at λ = 650 nm using a multiplate reader (Tecan, M1000Pro). In order to assess the minimum and maximum absorbance values of the enzymatic reaction, a Min control value was obtained by measuring the absorbance without DHO. Similarly, a Max value was obtained by measuring the absorbance with DHO but no inhibitor. A blank reduction calculation was also performed by measuring the absorbance values using 180 μL of Tris-HCl and 20 μL of coenzyme Q10. The instrument was set to read the absorbance values every 10 s for a total read time of 10 min at 37 °C. […] Values are the mean ± SE of three independent experiments.

THP1 cells [2] = experiment: Fixed-concentration screening of differentiation (CD14) and apoptosis (annexin V) in THP1, with or without uridine; assay type: cell-based, human
Method: DMSO (dimethyl sulfoxide) acts as the negative control group as it was used to solubilize hDHODH inhibitors. ∗, ∗∗, ∗∗∗ represent the statistical significance for apoptosis (respectively p < 0.05, < 0.01, and <0.001). #, ##, and ### represent the statistical significance for differentiation (respectively p < 0.05, <0.01, and <0.001). The statistical significance is calculated by comparing the compounds to DMSO.
The statistical significance is calculated by comparing the compounds to DMSO.

[3] = LogD7.4, shake-flask n-octanol/PBS; conditions: n-octanol/PBS, pH 7.4
Method: The partition coefficients between n-octanol and PBS at pH 7.4 (LogD^7.4) were obtained using the shake-flask technique at room temperature. In the shake-flask experiments, 50 mM phosphate buffered saline, pH 7.4, was used as the aqueous phase. The organic (n-octanol) and aqueous phases were mutually saturated by shaking for 4 h. The compounds were solubilized in the buffered aqueous phase at the highest concentration compatible with solubility, and appropriate amounts of n-octanol were added. The two phases were shaken for about 20 min, by which time the partitioning equilibrium of solutes had been reached, and then centrifuged (10 000 rpm, 10 min). The concentration of the solutes was measured in the aqueous phase using a UV spectrophotometer (Varian Cary 50BIO); absorbance values (recorded for each compound at the wavelength of maximum absorption) were interpolated in calibration curves obtained using standard solutions of the compounds (r^2 > 0.99). Each log D value is an average of at least six measurements.

THP1 cells [4] = experiment: Differentiation assay (CD14 expression) in THP1; conditions: Homo sapiens
U937 cells [5] = experiment: Differentiation assay (CD11b expression) in U937; conditions: Homo sapiens, U-937, 72 h, read-out: differentiation EC50 U937 (CL 95%)
Jurkat cells = experiment: CFSE-based cytotoxic activity assay; conditions: concentration inducing cytotoxicity ≥30%, 3 days
U937 cells [6] = experiment: Annexin V apoptosis assay in U937; conditions: Homo sapiens, U-937, 72 h, read-out: apoptosis EC50 U937 (CL 95%)
[7] = Solubility assay at pH 7.4 in PBS; assay type: physicochemical; conditions: pH 7.4, 25 °C, 24 h, LOD 6 μM; for solubility at 24 h: phosphate buffered saline
Method: These suspensions were filtered through a PTFE 0.45 μm filter (VWR), and the solutions were chromatographically analyzed using a PerkinElmer ultrahigh performance liquid chromatography (UHPLC) instrument, equipped with a reverse-phase (RP) C18 Phenomenex column (2.1 mm × 100 mm, 1.7 μm particle size). […] The flow rate was 0.5 mL/min. Standard injection volumes were either 2 or 4 μL for poorly soluble compounds. The detection system was a PerkinElmer diode array detector. The wavelengths that were monitored for each compound were defined according to the compound’s own absorption spectrum. Solubility, expressed as μM concentration of the saturated solution, was calculated via interpolation with external calibration curves that were obtained with solutions of each compound in acetonitrile.

THP1 cells [8] = experiment: Annexin V apoptosis assay in THP1; conditions: Homo sapiens
[9] = In vitro metabolic profile in rat-liver microsomes; assay type: in vitro ADME
Method: SyGMa (systematic generation of potential metabolites) software, a tool that lists predicted metabolites with associated empirical probability scores, was used to identify putative metabolites, which were then investigated by analyzing samples with liquid chromatography coupled to high-resolution mass spectrometry (HPLC–HRMS). […] The full-scan MS data acquired for all of the samples were analyzed to find the m/z values of the predicted molecular structures. In order to exclude interfering signals, the results obtained were compared to blank samples and common background peaks were not considered.
Rat-liver microsomes (Sprague-Dawley, male, Sigma-Aldrich; 20 mg/mL protein concentration) were incubated with the candidate compound solution (5 μM final concentration, with 1% DMSO) and Tris buffer (0.1 M, pH = 7.4). The regenerating system, which slowly generated coenzyme units over the incubation time, leading to a better reproduction of in vivo behavior, was composed of MgCl2 (3.3 mM), NADP^+ (1.3 mM), Glu6P (3.5 mM), and Glu6P dehydrogenase (0.5 U/mL).
The incubation time started with the addition of the microsomes suspension (0.5 mg/mL).
Metabolic reactions were stopped by adding 100 μL of cooled acetonitrile to the 100 μL sample of the incubation mixture. Samples were centrifuged to provoke protein precipitation, and the supernatants were immediately stocked at −80 °C, until analysis, to prevent the potential degradation of unstable products.
The products of in vitro metabolism were identified using a high-resolution mass spectrometer (Q-Exactive Orbitrap, Thermo Scientific) coupled to an HPLC instrument (1200 system Agilent). All analytes were separated on an Ascentis C18 column (150 mm × 2.1 mm, 5 μm particle size) maintained at 35 °C. The elution mixture was composed of solvent A (0.1% formic acid in water for positive ionization mode and 0.05% acetic acid for negative ionization mode) and solvent B (acetonitrile). […] MS2-DIA scans were acquired at R = 17 500 and with variable collision energies ranging from 30 to 45, depending on the m/z of the parent ion.

[10] = mean ± SE of three independent experiments, read-out: hDHODH, IC50 ± SE
[11] = supplementary CSV, values differ from Table 2, read-out: hDHODH IC50 ± SE (supplement CSV)
[12] = THP-1, 72 h, read-out: differentiation EC50 THP1 (CL 95%)
[13] = THP-1, read-out: Differentiation EC50 (C.L.95%) (supplement CSV)
[14] = THP-1, 72 h, read-out: apoptosis EC50 THP1 (CL 95%)
[15] = THP-1, read-out: Apoptosis EC50 (C.L.95%) (supplement CSV)

T1 sequence (Q02127 whole entry): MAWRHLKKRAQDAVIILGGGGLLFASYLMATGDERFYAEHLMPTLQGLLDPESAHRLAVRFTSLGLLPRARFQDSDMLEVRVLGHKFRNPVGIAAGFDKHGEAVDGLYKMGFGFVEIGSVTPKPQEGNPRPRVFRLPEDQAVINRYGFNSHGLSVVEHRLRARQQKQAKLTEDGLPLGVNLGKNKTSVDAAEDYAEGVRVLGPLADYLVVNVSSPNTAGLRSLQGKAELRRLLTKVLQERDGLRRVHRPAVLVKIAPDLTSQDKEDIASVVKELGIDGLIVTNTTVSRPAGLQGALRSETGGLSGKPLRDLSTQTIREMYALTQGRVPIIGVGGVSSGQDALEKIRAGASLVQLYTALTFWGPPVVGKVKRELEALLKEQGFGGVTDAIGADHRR

Structure (SMILES)	fraction unbound at 1 h, 50 µM [1]	IC50 (recombinant hDHODH; [10]) [nM]	IC50 (recombinant hDHODH; [11]) [nM]	activity in cells (differentiation and apoptosis) (THP1 cells [2]; THP1, 1 μM)	logD [3]	activity in cells (differentiation and apoptosis) (THP1 cells [2]; THP1, 0.1 μM)	EC50 (THP1 cells [4]; [12]) [nM]	EC50 (THP1 cells [4]; [13]) [nM]	EC50 (U937 cells [5]) [nM]	cytoxicity Jurkat (effect ≥30% ± SD) (Jurkat cells) [µM]	EC50 (U937 cells [6]) [nM]	solubility in PBS [7]	solubility at 24 h [7] [µM]	EC50 (THP1 cells [8]; [14]) [nM]	EC50 (THP1 cells [8]; [15]) [nM]	metabolites identified in sample C ([9]; active rat-liver microsomes and regenerating system, HPLC-HRMS)	parent compound recovered ([9]; rat-liver microsomes with regenerating system, 2 h incubation) [%]	metabolic stability ([9]; rat-liver microsomes, 2 h)
Cc1c(-c2ccc(-c3ccccc3F)cc2)nc2ccc(F)cc2c1C(=O)O [Brequinar, reference compound]	0.0117	–	–	–	–	–	–	–	–	–	–	–	–	–	–	–	–	–
O=C(Nc1c(F)c(F)c(-c2cccnc2)c(F)c1F)c1c(O)nn2ccccc12 [Compound 8, 2-Hydroxy-N-(2,3,5,6-tetrafluoro-4-(pyridin-3-yl)phenyl)pyrazolo[1,5-a]pyridine-3-carboxamide]	0.0042	6.23 ± 0.63	7.19 ± 0.19	basically inactive	0.98 ± 0.03	–	–	–	–	–	–	–	–	–	–	–	–	–
O=C(Nc1c(F)c(F)c(-c2cccc(F)c2)c(F)c1F)c1c(O)nn2ccccc12 [Compound 11, 2-Hydroxy-N-(2,3,3′,5,6-pentafluoro-[1,1′-biphenyl]-4-yl)pyrazolo[1,5-a]pyridine-3-carboxamide]	0.0004	2.03 ± 0.44	2.37 ± 0.35	–	2.09 ± 0.04	highly active	67.6	58.9	40.7	39 ± 3	68.2	<LOD	< 6	250	222	–	–	–
O=C(Nc1c(F)c(F)c(-c2cccc(C(F)(F)F)c2)c(F)c1F)c1c(O)nn2ccccc12 [Compound 13, 2-Hydroxy-N-(2,3,5,6-tetrafluoro-3′-(trifluoromethyl)-[1,1′-biphenyl]-4-yl)pyrazolo[1,5-a]pyridine-3-carboxamide]	0.0006	6.34 ± 0.63	3.01 ± 0.37	–	2.69 ± 0.03	highly active	38.3	32	34.2	>100	60	<LOD	< 6	51.1	42.9	–	–	–
O=C(Nc1c(F)c(F)c(-c2cccc(OC(F)(F)F)c2)c(F)c1F)c1c(O)nn2ccccc12 [Compound 15, 2-Hydroxy-N-(2,3,5,6-tetrafluoro-3′-(trifluoromethoxy)-[1,1′-biphenyl]-4-yl)pyrazolo[1,5-a]pyridine-3-carboxamide]	–	–	2.62 ± 0.79	–	3.27 ± 0.19	highly active	31.5	28	8.6	>100	35.3	–	8.1 (≈ 3.93 µg/mL)	39.6	32.6	did not identify appreciable concentration of metabolites	100	metabolically stable; also recorded: good metabolic stability
COc1cccc(-c2c(F)c(F)c(NC(=O)c3c(O)nn4ccccc34)c(F)c2F)c1 [Compound 16, 2-Hydroxy-N-(2,3,5,6-tetrafluoro-3′-methoxy-[1,1′-biphenyl]-4-yl)pyrazolo[1,5-a]pyridine-3-carboxamide]	0.0005	–	1.47 ± 0.33	–	–	highly active	31.2	26.9	31.1	68 ± 7	42.8	–	74.3 (≈ 32 µg/mL)	37.9	29.6	–	–	–
